US11446287B2, “Compounds and methods for EP300 or CBP modulation and indications therefor” (Opna Immuno-Oncology SA, priority 2019, dated 2022)

Each compound was assayed against T1, Recombinant human EP300 containing the bromodomain (EP300-BD (1040-1161)) (Homo sapiens, UniProt Q09472) (assay: EP300 Alphascreen binding assay).
T1 construct: Recombinant human EP300 bromodomain (EP300-BD (1040-1161)); made in house; host or cells: E. coli BL21-CodonPlus (DE3), modified pET vector
T1 sequence (Q09472 1040-1161): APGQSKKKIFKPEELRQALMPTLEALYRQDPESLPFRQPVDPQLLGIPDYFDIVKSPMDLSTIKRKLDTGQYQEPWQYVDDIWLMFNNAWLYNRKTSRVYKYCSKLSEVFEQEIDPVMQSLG
In short: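 Displacement of a biotinylated acetyl-K56 histone H3 peptide from the N-His bromodomain construct (1040-1161) measured by AlphaScreen proximity, beads at 7.5 μg/ml final, read 60 min after addition. Protein, peptide and compound first incubated 1 h at room temperature, pH 7.5 HEPES buffer; IC50 by four-parameter logistic fit.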
`Cc1noc(C)c1-c1cnc2c(c1)c(C#CC(=O)O)cn2Cc1ccccc1` [P-0069, 3-(1-benzyl-5-(3,5-dimethylisoxazol-4-yl)-1H-pyrrolo[2,3-b]pyridin-3-yl)propiolic acid] gave an IC50 of 0.0001 to 1 µM.
Work on `Cc1noc(C)c1-c1cnc2c(c1)c(-c1cccc(C(=O)O)c1)cn2Cc1cccc(Cl)c1` [P-0061, 3-(1-(3-chlorobenzyl)-5-(3,5-dimethylisoxazol-4-yl)-1H-pyrrolo[2,3-b]pyridin-3-yl)benzoic acid] yielded an IC50 of 0.0001 to 1 µM.
Work on `Cc1noc(C)c1-c1cnc2c(c1)c(-c1ccc(C(=O)O)cc1OC(F)(F)F)cn2[C@@H](C)c1ccccn1` [P-0070, (S)-4-(5-(3,5-dimethylisoxazol-4-yl)-1-(1-(pyridin-2-yl)ethyl)-1H-pyrrolo[2,3-b]pyridin-3-yl)-3-(trifluoromethoxy)benzoic acid] yielded an IC50 of 0.0001 to 1 µM.
`COC(=O)c1ccc(-c2cn(S(=O)(=O)c3ccc(C)cc3)c3ncc(-c4c(C)noc4C)cc23)cc1` [P-0005, methyl 4-(5-(3,5-dimethylisoxazol-4-yl)-1-tosyl-1H-pyrrolo[2,3-b]pyridin-3-yl)benzoate] was tested, and the IC50 was 8 to 1000 µM.
With `Cc1noc(C)c1-c1cnc2c(c1)c(-c1ccc(C(=O)O)cc1)cn2C(C)c1ccccn1` (stereo not shown) [P-0080, 4-(5-(3,5-dimethylisoxazol-4-yl)-1-(1-(pyridin-2-yl)ethyl)-1H-pyrrolo[2,3-b]pyridin-3-yl)benzoic acid] the IC50 was 1 to 8 µM.
Compound `Cc1cccc(Cn2cc(-c3cccc(C(=O)O)c3)c3cc(-c4c(C)noc4C)cnc32)c1` [P-0062, 3-(5-(3,5-dimethylisoxazol-4-yl)-1-(3-methylbenzyl)-1H-pyrrolo[2,3-b]pyridin-3-yl)benzoic acid] has an IC50 of 0.0001 to 1 µM.
With `Cc1noc(C)c1-c1cnc2c(CC3CCC3)cn(-c3ccc(C(=O)O)cc3OC(F)(F)F)c2c1` [P-0066, 4-(3-(cyclobutylmethyl)-6-(3,5-dimethylisoxazol-4-yl)-1H-pyrrolo[3,2-b]pyridin-1-yl)-3-(trifluoromethoxy)benzoic acid] the IC50 was 0.0001 to 1 µM.
`Cc1noc(C)c1-c1cnc2c(c1)c(-c1ccc(C(=O)O)cc1)cn2[C@@H](C)c1ccccn1` [P-0001, (S)-4-(5-(3,5-dimethylisoxazol-4-yl)-1-(1-(pyridin-2-yl)ethyl)-1H-pyrrolo[2,3-b]pyridin-3-yl)benzoic acid] showed an IC50 of 0.0001 to 1 µM.
Work on `Cc1noc(C)c1-c1cnc2c(CC3CCC3)cn(-c3ccc(S(C)(=O)=O)c(F)c3)c2c1` [P-0068, 4-(3-(cyclobutylmethyl)-1-(3-fluoro-4-(methylsulfonyl)phenyl)-1H-pyrrolo[3,2-b]pyridin-6-yl)-3,5-dimethylisoxazole] yielded an IC50 of 0.0001 to 1 µM.
For `CNS(=O)(=O)c1cccc(-c2cn(Cc3ccccc3)c3ncc(-c4c(C)noc4C)cc23)c1` [P-0082, 3-(1-benzyl-5-(3,5-dimethylisoxazol-4-yl)-1H-pyrrolo[2,3-b]pyridin-3-yl)-N-methylbenzenesulfonamide], the IC50 was 1 to 8 µM.
Compound `Cc1noc(C)c1-c1cnc2c(CC3CCC3)cn(-c3ccc(C(=O)O)cc3OC(F)F)c2c1` [P-0064, 4-(3-(cyclobutylmethyl)-6-(3,5-dimethylisoxazol-4-yl)-1H-pyrrolo[3,2-b]pyridin-1-yl)-3-(difluoromethoxy)benzoic acid] has an IC50 of 0.0001 to 1 µM.
For `Cc1noc(C)c1-c1cnc2c(C(=O)c3cccc(Cl)c3)cn(-c3ccnc(C(=O)O)c3)c2c1` [P-0088, 4-(3-(3-chlorobenzoyl)-6-(3,5-dimethylisoxazol-4-yl)-1H-pyrrolo[3,2-b]pyridin-1-yl)picolinic acid], the IC50 was 0.0001 to 1 µM.
For `Cc1noc(C)c1-c1cnc2c(c1)c(-c1c(F)ccc(NS(C)(=O)=O)c1F)cn2C(C)c1ccccn1` (stereo not shown) [P-0096, N-(3-(5-(3,5-dimethylisoxazol-4-yl)-1-(1-(pyridin-2-yl)ethyl)-1H-pyrrolo[2,3-b]pyridin-3-yl)-2,4-difluorophenyl)methanesulfonamide], the IC50 was 0.0001 to 1 µM.
With `Cc1noc(C)c1-c1cnc2c(c1)c(-c1c(Cl)cc(C(=O)O)cc1Cl)cn2C(C)c1ccccn1` (stereo not shown) [P-0095, 3,5-dichloro-4-(5-(3,5-dimethylisoxazol-4-yl)-1-(1-(pyridin-2-yl)ethyl)-1H-pyrrolo[2,3-b]pyridin-3-yl)benzoic acid] the IC50 was 0.0001 to 1 µM.
`Cc1noc(C)c1-c1cnc2c(CC3CC3)cn(-c3ccnc(C(=O)O)c3)c2c1` [P-0065, 4-(3-(cyclopropylmethyl)-6-(3,5-dimethylisoxazol-4-yl)-1H-pyrrolo[3,2-b]pyridin-1-yl)picolinic acid] gave an IC50 of 0.0001 to 1 µM.
`Cc1noc(C)c1-c1cnc2c(c1)c(-c1cccc(S(N)(=O)=O)c1)cn2Cc1ccccc1` [P-0081, 3-(1-benzyl-5-(3,5-dimethylisoxazol-4-yl)-1H-pyrrolo[2,3-b]pyridin-3-yl)benzenesulfonamide] was tested, and the IC50 was 0.0001 to 1 µM.
Work on `Cc1noc(C)c1-c1cnc2c(CC3CCC3)cn(-c3ccnc(C#N)c3)c2c1` [P-0077, 4-(3-(cyclobutylmethyl)-6-(3,5-dimethylisoxazol-4-yl)-1H-pyrrolo[3,2-b]pyridin-1-yl)picolinonitrile] yielded an IC50 of 0.0001 to 1 µM.
`COc1cccc(Cn2cc(-c3cccc(C(=O)O)c3)c3cc(-c4c(C)noc4C)cnc32)c1` [P-0056, 3-(5-(3,5-dimethylisoxazol-4-yl)-1-(3-methoxybenzyl)-1H-pyrrolo[2,3-]pyridin-3-yl)benzoic acid] gave an IC50 of 0.0001 to 1 µM.
In the case of `Cc1noc(C)c1-c1cnc2c(C(=O)c3ccccc3Cl)cn(-c3ccnc(C(=O)O)c3)c2c1` [P-0089, 4-(3-(2-chlorobenzoyl)-6-(3,5-dimethylisoxazol-4-yl)-1H-pyrrolo[3,2-b]pyridin-1-yl)picolinic acid], the IC50 is reported as 0.0001 to 1 µM.
With `Cc1noc(C)c1-c1cnc2c(c1)c(-c1ccc(C(=O)O)cc1)cn2C(c1ccccn1)C1CCCC1` (stereo not shown) [P-0002, 4-(1-(cyclopentyl(pyridin-2-yl)methyl)-5-(3,5-dimethylisoxazol-4-yl)-1H-pyrrolo[2,3-b]pyridin-3-yl)benzoic acid] the IC50 was 0.0001 to 1 µM.
With `Cc1noc(C)c1-c1cnc2c(c1)c(-c1ccc(C(=O)O)cc1OC(F)F)cn2[C@@H](C)c1ccccn1` [P-0071, (S)-3-(difluoromethoxy)-4-(5-(3,5-dimethylisoxazol-4-yl)-1-(1-(pyridin-2-yl)ethyl)-1H-pyrrolo[2,3-b]pyridin-3-yl)benzoic acid] the IC50 was 0.0001 to 1 µM.
In the case of `Cc1noc(C)c1-c1cnc2c(c1)c(-c1cccc(C(=O)O)c1)cn2Cc1cccc(C(F)(F)F)c1` [P-0063, 3-(5-(3,5-dimethylisoxazol-4-yl)-1-(3-(trifluoromethyl)benzyl)-1H-pyrrolo[2,3-b]pyridin-3-yl)benzoic acid], the IC50 is reported as 0.0001 to 1 µM.
`Cc1noc(C)c1-c1cnc2c(c1)c(-c1cccc(C(=O)O)c1)cn2Cc1cccc(F)c1` [P-0060, 3-(5-(3,5-dimethylisoxazol-4-yl)-1-(3-fluorobenzyl)-1H-pyrrolo[2,3-b]pyridin-3-yl)benzoic acid] was tested, and the IC50 was 0.0001 to 1 µM.
For `Cc1noc(C)c1-c1cnc2c(C(=O)C3CC3)c(O)n(-c3ccnc(C(=O)O)c3)c2c1` [P-0084, 4-(3-(cyclopropanecarbonyl)-6-(3,5-dimethylisoxazol-4-yl)-2-hydroxy-1H-pyrrolo[3,2-b]pyridin-1-yl)picolinic acid], the IC50 was 0.0001 to 1 µM.
`Cc1noc(C)c1-c1cnc2c(c1)c(-c1cccc(C(=O)O)c1)cn2C(C1CCC1)C1CCC1` [P-0072, 3-(1-(dicyclobutylmethyl)-5-(3,5-dimethylisoxazol-4-yl)-1H-pyrrolo[2,3-b]pyridin-3-yl)benzoic acid] gave an IC50 of 0.0001 to 1 µM.
